Assays:
MKNK1 [1] = target: T1, MKNK1 (Homo sapiens, UniProt Q9BUB5, T385D); experiment: MKNK1 kinase assay (MKNK1 TR-FRET assay); assay type: biochemical; conditions: Table 1d; 10 μM ATP, 15 min preincubation
T1 construct: GST (N); purchased Carna Biosciences 02-145; host or cells: insect cells (baculovirus expression system)

MKNK1 [2] = target: T1, MKNK1; experiment: MKNK1 kinase high ATP assay (TR-FRET-based); assay type: biochemical; conditions: Table 2d; 2 mM ATP, 15 min preincubation
How it was run: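 TR-FRET read-out (anti-phospho-S6 Ser236 antibody, Eu/XL665) of biotin-peptide phosphorylation (0.06 μM) at high ATP (2 mM final). Enzyme was GST-MKNK1 full length, T344D, pre-bound to compound for 15 min before a 30 min reaction at 22 °C, pH 7.5. Inhibition scaled between no-inhibitor (0%) and no-enzyme (100%) wells.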

T1 sequence (Q9BUB5 1-424 isoform Q9BUB5-2 T344D): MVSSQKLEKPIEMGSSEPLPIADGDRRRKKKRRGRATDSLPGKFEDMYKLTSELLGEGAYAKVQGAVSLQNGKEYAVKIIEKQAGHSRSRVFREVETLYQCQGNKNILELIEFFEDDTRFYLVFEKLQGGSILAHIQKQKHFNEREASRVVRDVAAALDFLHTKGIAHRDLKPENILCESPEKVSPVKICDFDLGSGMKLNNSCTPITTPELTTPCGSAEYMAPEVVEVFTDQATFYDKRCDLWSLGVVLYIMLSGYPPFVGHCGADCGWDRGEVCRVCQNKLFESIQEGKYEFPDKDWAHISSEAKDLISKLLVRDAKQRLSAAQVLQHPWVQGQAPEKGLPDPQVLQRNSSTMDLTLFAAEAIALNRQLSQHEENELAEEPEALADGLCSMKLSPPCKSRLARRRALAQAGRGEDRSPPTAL

## COc1nccc2oc(-c3cnc4ccc(OC[C@H]5CN(C(=O)C(F)(F)F)CCO5)nn34)cc12 [IV-10, 2,2,2-Trifluoro-1-[(2R)-2-({[3-(4-methoxyfuro[3,2-c]pyridin-2-yl)imidazo-[1,2-b]pyridazin-6-yl]oxy}methyl)morpholin-4-yl]ethanone]
MKNK1 [1]
  IC50: 7 nM
MKNK1 [2]
  IC50: 17 nM

## COc1nccc2oc(-c3cnc4ccc(OC[C@H]5CN(C(=O)C(C)(C)C)CCO5)nn34)cc12 [IV-11, 1-[(2R)-2-({[3-(4-Methoxyfuro[3,2-c]pyridin-2-yl)imidazo[1,2-b]pyridazin-6-yl]oxy}-methyl)morpholin-4-yl]-2,2-dimethylpropan-1-one]
MKNK1 [1]
  IC50: 6 nM
MKNK1 [2]
  IC50: 25 nM

## CC(C)Oc1nccc2oc(-c3cnc4ccc(OC[C@H]5CNCC(=O)N5)nn34)cc12 [IV-13, (6R)-6-[({3-[4-(Propan-2-yloxy)furo[3,2-c]pyridin-2-yl]imidazo[1,2-b]pyridazin-6-yl}oxy)methyl]piperazin-2-one]
MKNK1 [1]
  IC50: 22 nM
MKNK1 [2]
  IC50: 43 nM

## CCNc1nccc2oc(-c3cnc4ccc(OC[C@H]5CCC(=O)N5)nn34)cc12 [IV-14, (5R)-5-[({3-[4-(Ethylamino)furo[3,2-c]pyridin-2-yl]imidazo[1,2-b]pyridazin-6-yl}oxy)methyl]pyrrolidin-2-one]
MKNK1 [1]
  IC50: 1 nM
MKNK1 [2]
  IC50: 2 nM

Reference: US20160287589A1, “SUBSTITUTED-IMIDAZOPYRIDAZINES” (BAYER PHARMA AKTIENGESELLSCHAFT, priority 2013, published 2016)
